Key:
[1] = target: recombinant DYRK1A kinase (Homo sapiens, UniProt Q13627); experiment: DYRK1A kinase assay (Ser/Thr 18 peptide Z-lyte FRET); type: biochemical; conditions: DYRK1A kinase activity; 15 μM ATP, 4 μM Ser/Thr peptide 18, one hour at room temperature
In short: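 Recombinant DYRK1A at 0.25 μg/mL was incubated 1 h at room temperature with 15 μM ATP, 4 μM Ser/Thr 18 peptide and compound, in duplicate, 11-point series from 10 μM. Phosphorylation was read by Z-lyte FRET after 1 h protease development, as the coumarin/fluorescein emission ratio converted to % phosphorylation. IC50 by non-linear regression.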

[2] = test system: Tau phosphorylation at Thr212 (pThr212); experiment: Tau phosphorylation assay, phosphoTau (Thr212) AlphaLISA in HEK293T cells transfected with DYRK1A and MAPT; type: cell-based; conditions: HEK-293T; HEK293T cells transfected with human DYRK1A and MAPT; compound treatment 18-24 hours; read-out: pTau (Thr212) EC50
Method: Representative compounds were screened using the assay procedure for tau phosphorylation activity described below.
HEK293T cells (ATCC, CRL3216) cultured in DMEM (Thermo Fisher Scientific, 10566024) supplemented with 10% FBS (Corning, 35-011-CV) and Penicillin/Streptomycin (Thermo Fisher Scientific, 15140163) were seeded in a 75 cm^2 flask at 8.1×10^6 cells/flask. The HEK293T cells were then transiently transfected with 5 μg DYRK1A (NM_001396) human untagged clone (OriGene, SC314641) and 2.5 μg MAPT (441 a.a. Tau gene) (NM_005910) human untagged clone (OriGene, TP313312) using Lipofectamine 3000 (Thermo Fisher Scientific, L30000015) and incubated for 20-30 hours in a humidified incubator at 37° C. and 5% CO2. Post-incubation, HEK293T cells transfected with the DYRK1A and MAPT expression vectors were harvested and seeded in BioCoat poly-D lysine coated 96-well plates (Corning, 354461) at 3×10^4 cells/well.
The above synthesized compounds were screened using the cell assay procedure to assess decreased Tau phosphorylation at Thr212 (pThr212) described below.
Each compound was dissolved in DMSO (Sigma-Aldrich, D8418-100 mL) as a 10 mM stock. 10 mM stocks were serially diluted 1:3, 10-point dose-response curve and added to the cells with a final concentration ranging from 20 μM to 1.1 nM. Cell were treated with compounds in duplicate and incubated for 18-24 hours in a humidified incubator at 37° C. and 5% CO2.
Following the overnight compound treatment, cells were lysed with 1× Alpha Surefire Ultra Lysis Buffer (Perkin Elmer, ALSU-LB-100ML) complemented with 1× Halt Phosphatase Inhibitor Cocktail (Thermo Fisher Scientific, 78427) and 1× Halt Protease Inhibitor Cocktail (Thermo Fisher Scientific, 78438). Lysates were spun down at 12,000 g for 10 min to remove any cellular debris and 5 μL of lysates were dispensed into a 384-well Opti-Plate (Perkin Elmer, 6007290) for the measurement of Tau phosphorylation in the phosphoTau (Thr212) AlphaLISA assay. Donor antibody, biotinylated HT7Tau (Thermo Fisher Scientific, MN1000B), and acceptor antibody, pThr212Tau (Thermo Fisher Scientific, 44740G) were both added to the cell lysates at a final concentration of 3 nM and incubated for 1 hour at room temperature. Following incubation of the lysates with the donor and acceptor antibodies, anti-rabbit IgG(Fc specific) AlphaLISA acceptor beads (Perkin Elmer, AL104C) were added at a 10 ug/mL final concentration and incubated for 1 hour at room temperature protected from light. Lastly, AlphaScreen streptavidin donor beads (PerkinElmer, 6760002) were added at 40 ug/mL final concentration and incubated for 1 hour at room temperature protected from light. Plates were read at Ex=[…], and Em=615 nm on the EnVision Multilabel Plate Reader (Perkin Elmer) phospho-Tau (Thr212) AlphaLISA signal was used to plot, draw the curve fitting, and determine each compound's EC50 in Prism (GraphPad).

Row | SMILES | EC50 [1] | EC50 [2]
1 | c1cn2cc(-c3c[nH]c4nc(C5CC5)ccc34)ccc2n1 [Compound 1498, 6-(6-Cyclopropyl-1H-pyrrolo[2,3-b]pyridin-3-yl)imidazo[1,2-a] pyridine] | 47 nM | 441 nM
2 | c1cn2nc(-c3c[nH]c4nc(C5CC5)ccc34)ccc2n1 [Compound 1508, 6-(6-Cyclopropyl-1H-pyrrolo[2,3-b]pyridin-3-yl)imidazo[1,2-b] pyridazine] | 29 nM | 321 nM
3 | C[C@@H](NC(=O)c1cnn2ccc(-c3c[nH]c4nc(C5CC5)ccc34)cc12)C(F)(F)F [Compound 1513, (R)-5-(6-Cyclopropyl-1H-pyrrolo[2,3-b]pyridin-3-yl)-N-(1,1,1-trifluoropropan-2-yl)pyrazolo[1,5-a]pyridine-3-carboxamide] | 91 nM | 374 nM
4 | O=C1NCCOc2cc(-c3c[nH]c4nc(C5CC5)ccc34)ccc21 [Compound 1529, 8-(6-Cyclopropyl-1H-pyrrolo[2,3-b]pyridin-3-yl)-3,4-dihydrobenzo[f][1,4] oxazepin-5(2H)-one] | 28 nM | 413 nM
5 | c1cnc2ccc(-c3c[nH]c4nc(C5CC5)ccc34)cc2c1 [Compound 1530, 6-(6-Cyclopropyl-1H-pyrrolo[2,3-b]pyridin-3-yl)quinoline] | 24 nM | 393 nM
6 | CN1CCN(C(=O)c2cnn3ccc(-c4c[nH]c5ncc(C#N)cc45)cc23)CC1 [Compound 2046, 3-(3-(4-Methylpiperazine-1-carbonyl)pyrazolo[1,5-a]pyridin-5-yl)-1H-pyrrolo[2,3-b]pyridine-5-carbonitrile] | 47 nM | 622 nM
7 | O=C(Nc1ccncc1)c1ccc2c(-c3ccc4ncccc4c3)c[nH]c2n1 [Compound 2054, N-(Pyridin-4-yl)-3-(quinolin-6-yl)-1H-pyrrolo[2,3-b]pyridine-6-carboxamide] | 51 nM | 6240 nM

Stronger by EC50 [1], values ahead:

Row | EC50 [1] | EC50 [2] | SMILES
8 | 5 nM | 936 nM | Cc1nc2c(F)cc(-c3c[nH]c4nc(C5CC5)ccc34)cc2n1C1CCN(C)CC1 [Compound 1502, 6-(6-cyclopropyl-1H-pyrrolo[2,3-b]pyridin-3-yl)-4-fluoro-2-methyl-1-(1-methylpiperidin-4-yl)-1H-benzo[d]imidazole]
9 | 5 nM | 82 nM | CN1CCC(NC(=O)c2cnn3ccc(-c4c[nH]c5nc(C6CC6)ccc45)cc23)CC1 [Compound 1514, 5-(6-Cyclopropyl-1H-pyrrolo[2,3-b]pyridin-3-yl)-N-(1-methylpiperidin-4-yl)pyrazolo[1,5-a]pyridine-3-carboxamide]
10 | 12 nM | 25 nM | O=C1NCc2cc(-c3c[nH]c4nc(C5CC5)ccc34)ccc21 [Compound 1522, 5-(6-Cyclopropyl-1H-pyrrolo[2,3-b]pyridin-3-yl)isoindolin-1-one]
11 | 10 nM | 73 nM | O=C1NCCc2cc(-c3c[nH]c4nc(C5CC5)ccc34)ccc21 [Compound 1526, 6-(6-Cyclopropyl-1H-pyrrolo[2,3-b]pyridin-3-yl)-3,4-dihydroisoquinolin-1(2H)-one]
12 | 4 nM | 132 nM | CN1CCC(NC(=O)c2cnn3ccc(-c4c[nH]c5nc(C6CCCC6)ccc45)cc23)CC1 [Compound 1598, 5-(6-Cyclopentyl-1H-pyrrolo[2,3-b]pyridin-3-yl)-N-(1-methylpiperidin-4-yl)pyrazolo[1,5-a]pyridine-3-carboxamide]
13 | 6 nM | 199 nM | CN1CCC(NC(=O)c2cnn3ccc(-c4c[nH]c5nc(CC6CCC6)ccc45)cc23)CC1 [Compound 1640, 5-(6-(Cyclobutylmethyl)-1H-pyrrolo[2,3-b]pyridin-3-yl)-N-(1-methylpiperidin-4-yl)pyrazolo[1,5-a]pyridine-3-carboxamide]
14 | 18 nM | 540 nM | FC(F)Oc1ccc2c(-c3ccc4nccn4c3)c[nH]c2n1 [Compound 1708, 6-(6-(Difluoromethoxy)-1H-pyrrolo[2,3-b]pyridin-3-yl)imidazo[1,2-a] pyridine]
15 | 9 nM | 210 nM | CCOc1ccc2c(-c3ccc4nccn4c3)c[nH]c2n1 [Compound 1750, 6-(6-Ethoxy-1H-pyrrolo[2,3-b]pyridin-3-yl)imidazo[1,2-a]pyridine]
16 | 15 nM | 305 nM | CCOc1ccc2c(-c3ccc4ncccc4c3)c[nH]c2n1 [Compound 1782, 6-(6-Ethoxy-1H-pyrrolo[2,3-b]pyridin-3-yl)quinoline]
17 | 7 nM | 8 nM | CN1CCC(NC(=O)c2cnn3ccc(-c4c[nH]c5nc(-c6ccccc6)ccc45)cc23)CC1 [Compound 2018, N-(1-Methylpiperidin-4-yl)-5-(6-phenyl-1H-pyrrolo[2,3-b]pyridin-3-yl)pyrazolo[1,5-a]pyridine-3-carboxamide]
